From patent US9296753B2, “Crystalline forms of a Bruton's tyrosine kinase inhibitor” (Pharmacyclics LLC, priority 2012, dated 2016)
Values after ≈ are worked out from the molar mass of the structure shown. Read-outs that look alike come from different tables or passages of the source.

Key:
[1] = Thermodynamic aqueous solubility; format: physicochemical; details: water, 25 °C, thermodynamic from solid
Procedure: The suspension was equilibrated at 25° C. for 24 hours then the pH was measured. The suspension was then filtered through a glass fibre C filter. The filtrate was then diluted by an appropriate factor e.g. 101. Quantitation was by HPLC with reference to a standard solution of approximately 0.25 mg/ml in DMSO. Different volumes of the standard, diluted and undiluted sample solutions were injected. The solubility was calculated using the peak areas determined by integration of the peak found at the same retention time as the principal peak in the standard injection.
Analysis was performed on an Agilent HP1100 series system equipped with a diode array detector and using ChemStation software vB.02.01-SR1.

[2] = for mass change (GVS): between 0-90% RH
Procedure: Sorption isotherms were obtained using a SMS DVS Intrinsic moisture sorption analyser, controlled by DVS Intrinsic Control software v1.0.0.30. The sample temperature was maintained at 25° C. by the instrument controls. The humidity was controlled by mixing streams of dry and wet nitrogen, with a total flow rate of 200 ml/min. […] The weight change, (mass relaxation) of the sample as a function of % RH was constantly monitored by the microbalance (accuracy±0.005 mg). Typically 5-20 mg of sample was placed in a tared mesh stainless steel basket under ambient conditions. The sample was loaded and unloaded at 40% RH and 25° C. (typical room conditions). A moisture sorption isotherm was performed as outlined below (2 scans giving 1 complete cycle). The standard isotherm was performed at 25° C. at 10% RH intervals over a 0-90% RH range. Data analysis was undertaken in Microsoft Excel using DVS Analysis Suite v6.0.0.7. The sample was recovered after completion of the isotherm and re-analysed by XRPD.

Row | Compound | solubility at 24 h ([1]; pH 1.2, simulated gastric fluid, pH 1.2, 25° C., 24 hours, read-out: Conc. Found (solubility in aqueous solution)) [µg/mL] | solubility at 24 h ([1]; pH 1.64, simulated gastric fluid, pH 1.64, 25° C., 24 hours, read-out: Conc. Found (solubility in aqueous solution)) [µg/mL] | solubility at 24 h ([1]; pH 1.95, simulated gastric fluid, pH 1.95, 25° C., 24 hours, read-out: Conc. Found (solubility in aqueous solution)) [µg/mL] | solubility at 24 h ([1]; pH 3, aqueous buffer, pH 3, 25° C., 24 hours, read-out: Conc. Found (solubility in aqueous solution)) [µg/mL] | solubility at 24 h ([1]; pH 4, aqueous buffer, pH 4, 25° C., 24 hours, read-out: Conc. Found (solubility in aqueous solution)) [µg/mL] | solubility at 24 h ([1]; pH 5, aqueous buffer, pH 5, 25° C., 24 hours, read-out: Conc. Found (solubility in aqueous solution)) [µg/mL] | solubility at 24 h ([1]; pH 6, aqueous buffer, pH 6, 25° C., 24 hours, read-out: Conc. Found (solubility in aqueous solution)) [µg/mL] | solubility at 24 h ([1]; pH 8, aqueous buffer, pH 8, 25° C., 24 hours, read-out: Conc. Found (solubility in aqueous solution)) [µg/mL] | solubility at 24 h ([1]; pH 9, aqueous buffer, pH 9, 25° C., 24 hours, read-out: Conc. Found (solubility in aqueous solution)) [µg/mL] | solubility at 24 h ([1]; pH 10, aqueous buffer, pH 10, 25° C., 24 hours, read-out: Conc. Found (solubility in aqueous solution)) [µg/mL] | changes in the XRPD after GVS analysis [2] | mass change (GVS) ([2]; 25° C.) [% w/w] | solubility at 24 h ([1]; pH 7.42, water, pH of about 7.42, read-out: observed aqueous solubility) [µg/mL] | solubility thermodynamic at 24 h ([1]; pH 7.42, water, pH of 7.42) [µg/mL] | hysteresis (GVS) ([2]; 0-90% RH, 25° C.)
1 | C=CC(=O)N1CCC[C@@H](n2nc(-c3ccc(Oc4ccccc4)cc3)c3c(N)ncnc32)C1 [Form A, 1-((R)-3-(4-amino-3-(4-phenoxyphenyl)-1H-pyrazolo[3,4-d]pyrimidin-1-yl)piperidin-1-yl)prop-2-en-1-one] | 1300 (≈ 2950 µM) | 1070 (≈ 2430 µM) | 820 (≈ 1860 µM) | 100 (≈ 227 µM) | 22 (≈ 49.9 µM) | 17 (≈ 38.6 µM) | 15 (≈ 34.1 µM) | ~13 (≈ 29.5 µM) | 20 (≈ 45.4 µM) | 10 (≈ 22.7 µM) | No significant changes | < 0.3 | – | – | –
2 | C=CC(=O)N1CCC[C@@H](n2nc(-c3ccc(Oc4ccccc4)cc3)c3c(N)ncnc32)C1 [Form B, 1-((R)-3-(4-amino-3-(4-phenoxyphenyl)-1H-pyrazolo[3,4-d]pyrimidin-1-yl)piperidin-1-yl)prop-2-en-1-one] | – | – | – | – | – | – | – | – | – | – | No significant changes | 2.3 | ~9.6 (≈ 21.8 µM) | 9.6 (≈ 21.8 µM) | No hysteresis
